From the supplement of paper PMC4862054
“And” between values parts separate entries of the source, which are not always exact repeats. Equal entries are not always repeated.

Assays:
Conditions in all cases: incubation time: 72 h
CAL-148 [1] = test: normalised viability (% of control), CellTiter-Blue; higher = more viable cells (about 100 = DMSO control)
Description: (§1)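 DSRT, CellTiter-Blue viability, 72 h incubation. Signal is normalised to DMSO and benzethonium chloride controls. Value is the normalised response at dose 7.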

CAL-51 = test: as above
Description: as §1

CAL-85-1 [2] = test: as above
Description: as §1

DU-4475 [3] = test: as above
Description: as §1

HDQ-P1 [4] = test: as above
Description: as §1

MDA-MB-453 = test: as above
Description: as §1

BT-474 = test: normalised response (% of control), CellTiter-Glo; higher = more viable cells (100 = DMSO, 0 = benzethonium chloride kill control)
Summary of the method: (§2)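 After 72 h with compound in 384-well plates, breast cancer cell lines seeded as 20 µl suspension were read for CellTox Green fluorescence at 485/520 nm. CellTiter-Glo luminescence was then read after 10 min at room temperature. Compound was present at 5 concentrations in 10-fold steps over a 10,000-fold range set per compound, and plates were normalised to 0.1 % DMSO (100) and a positive kill control (0). Values are normalised signals, each at a single concentration.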

BT-549 = test: as above
Summary of the method: as §2

CAL-120 = test: as above
Summary of the method: as §2

CAL-148 [5] = test: as above
Summary of the method: as §2

CAL-85-1 [6] = test: as above
Summary of the method: as §2

DU-4475 [7] = test: as above
Summary of the method: as §2

HCC1143 = test: as above
Summary of the method: as §2

HCC1599 [8] = test: as above
Summary of the method: as §2

HCC1937 = test: as above
Summary of the method: as §2

HDQ-P1 [9] = test: as above
Summary of the method: as §2

Hs578T = test: as above
Summary of the method: as §2

MCF-10A = test: as above
Summary of the method: as §2

MDA-MB-231 = test: as above
Summary of the method: as §2

MDA-MB-468 = test: as above
Summary of the method: as §2

MFM-223 = test: as above
Summary of the method: as §2

CAL-85-1 [10] = test: drug sensitivity score (DSS), CellTiter-Glo (DSS (AUC-based score)); higher = stronger drug effect (viability inhibition or cytotoxicity); extreme values may be limits of the assay
Summary of the method: (§3)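 After 72 h of incubation in 384-well plates with compound at 5 concentrations (10-fold steps, 10,000-fold range set per compound), breast cancer cell lines seeded in 20 µl suspension were read first for CellTox Green fluorescence at 485/520 nm. CellTiter-Glo luminescence was measured next, after 10 min at room temperature. Normalisation on each plate used 0.1 % DMSO and a positive kill control, and the drug sensitivity score was computed from the area under the fitted dose-response curve.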

HCC1599 [11] = test: as above
Summary of the method: as §3

SMILES	normalised viability (CAL-148 [1])	normalised viability (CAL-51)	normalised viability (CAL-85-1 [2])	normalised viability (DU-4475 [3])	normalised viability (HDQ-P1 [4]) [%]	normalised viability (MDA-MB-453)	normalised response (BT-474) [%]	normalised response (BT-549) [%]	normalised response (CAL-120) [%]	normalised response (CAL-148 [5]) [%]	normalised response (CAL-85-1 [6]) [%]	normalised response (DU-4475 [7]) [%]	normalised response (HCC1143) [%]	normalised response (HCC1599 [8]) [%]	normalised response (HCC1937) [%]	normalised response (HDQ-P1 [9]) [%]	normalised response (Hs578T) [%]	normalised response (MCF-10A) [%]	normalised response (MDA-MB-231) [%]	normalised response (MDA-MB-468) [%]	normalised response (MFM-223) [%]	drug sensitivity score (CAL-85-1 [10])	drug sensitivity score (HCC1599 [11])
CS(=O)(=O)OCCCCOS(C)(=O)=O [Busulfan] (10000 nM)	120%	85.6%	108%	103%	88.2	104%	93.7	97.3	94.9	102	98.2	107	99.1	103	99.6	98.3	109	98.9	102	109	107		
CS(=O)(=O)CCNCc1ccc(-c2ccc3ncnc(Nc4ccc(OCc5cccc(F)c5)c(Cl)c4)c3c2)o1 [Lapatinib] (1000 nM)	82.4% and 94%	105% and 94.6%	66.4% and 66.5%	94.5% and 86.5%		38% and 36.7%																	
CC(=O)O[C@H]1C(=O)[C@@]2(C)[C@H]([C@H](OC(=O)c3ccccc3)[C@]3(O)C[C@H](OC(=O)[C@H](O)[C@@H](NC(=O)c4ccccc4)c4ccccc4)C(C)=C1C3(C)C)[C@]1(OC(C)=O)CO[C@@H]1C[C@@H]2O [Paclitaxel] (100 nM)	20.8%	23.4%	31.8%	27.3%	33	24.8%	36.7	15	47.7	39.6	20.9	51.5	30.7	36.2	66.2	60.4	11.4	33.5	33.2	21.7	38.2		
Cn1cnc2c(F)c(Nc3ccc(Br)cc3F)c(C(=O)NOCCO)cc21 [MEK-162] (100 nM)	98.8%	101%	82.1%	25.7%	107	112%	88.8	100	94	91.1	99.2	42.6	90.5	104	95	71.4	86.2	49	92	94.7	102		
COc1cc(Nc2ncc(F)c(Nc3ccc4c(n3)NC(=O)C(C)(C)O4)n2)cc(OC)c1OC [Tamatinib]																						0	0
FC(F)c1nc2ccccc2n1-c1nc(N2CCOCC2)nc(N2CCOCC2)n1 [ZSTK474]																						10.4	2.33
CC(C)(C)c1cc(NC(=O)Nc2ccc(-c3cn4c(n3)sc3cc(OCCN5CCOCC5)ccc34)cc2)no1 [Quizartinib]																						0	0
Cc1cc(C(C)Nc2ccccc2)c2nc(N3CCOCC3)cc(=O)n2c1 (stereo unspecified) [TGX-221]																						0	0
COc1c(C)cnc(Cn2cnc3c(Cl)nc(N)nc32)c1C [BIIB021] (1000 nM)	14.6%	26.1%	33.4%	0.09%	46.8	6.04%	31.1	37.3	53.6	23.9	26.9	0.4	38.6	54.3	24.7	29.5	55.5	15.4	25.5	43.4	40.2		
COc1ncc(-c2ccc3nccc(-c4ccnnc4)c3c2)cc1NS(=O)(=O)c1ccc(F)cc1F (100 nM)	25%	17.2%	30.5%	61.5%	22.3	7.68%	52.7	27.1	45.6	42.5	31.8	78.1	38.2	55.4	54.6	25.5	39	31.8	55	37.9	37		
C[C@@H]1C=C2C(=O)O[C@@H]3CC[C@H](C1)[C@]23O [Galiellalactone] (5000 nM)	147%	105%	72.6%	118%	98	73.7%	99.3	97.6	103	110	96.2	102	101	98.4	98.4	100	111	105	114	82	104		
CS(=O)(=O)OCCCCOS(C)(=O)=O [Busulfan]																						0	0
CC(C)C[C@H](NC(=O)[C@H](Cc1ccccc1)NC(=O)c1cnccn1)B(O)O [Bortezomib] (100 nM)	18.2%	2.63%	5.3%	2.48%	1.22	19.4%	1.56	1.75	10.4	22.6	1.51	13	10.9	56.6	59	3.18	0.6	68.6	0.34	0.63	3.48		
CCOc1cc2ncc(C#N)c(Nc3ccc(OCc4ccccn4)c(Cl)c3)c2cc1NC(=O)/C=C/CN(C)C [Neratinib] (100 nM)	101%	92.6%	94.9%	102%	120	76%	102	97.5	99	83.4	67.9	101	98.8	102	88	69.8	103	43.1	102	82.8	101		
C#Cc1cccc(Nc2ncnc3cc(OC)c(OCCCCCCC(=O)NO)cc23)c1 [CUDC-101] (1000 nM)	47%	97.7%	24.9%	60.9%	50	19.1%	72.9	66.9	74.2	60.3	6.55	64.1	48.9	47.9	63.6	70	73.9	28.9	39.1	18.8	33.4		
Nc1nccc(-c2c(-c3ccc(F)cc3)ncn2C2CCCCC2)n1																						0.583	0
O=C(c1ccc(OCCN2CCCCC2)cc1)c1c(-c2ccc(O)cc2)sc2cc(O)ccc12 [Raloxifene] (1000 nM)	112%	91.5%	101%	86.2%	81.3	97.1%	102	102	96.3	103	94.4	103	110	99.8	100	100	107	108	107	92.6	95.6		
CN1CCN(c2ccc3nc(-c4c(N)c5c(F)cccc5[nH]c4=O)[nH]c3c2)CC1 [Dovitinib]																						0	0
COc1ccc(C2=N[C@@H](c3ccc(Cl)cc3)[C@@H](c3ccc(Cl)cc3)N2C(=O)N2CCNC(=O)C2)c(OC(C)C)c1 [Nutlin-3] (1000 nM)	91.6%	95.8%	88.9%	94.7%	119	97.2%	98.9	100	93.6	101	96.8	96.5	99.8	117	102	105	106	102	106	99.9	104		
CN(c1ccccc1CNc1nc(Nc2ccc3c(c2)CC(=O)N3)ncc1C(F)(F)F)S(C)(=O)=O																						6.85	3.99
C[C@@H]1CCN(C(=O)CC#N)C[C@@H]1N(C)c1ncnc2[nH]ccc12 [Tofacitinib]																						0	0
CCCC(CCC)C(=O)O [Valproic acid]																						0	0
